Assay results from patent publication US8962621B2 (Shanghai Institute of Pharmaceutical Industry, priority 2010, dated 2015).
Counter-ions that a name gives are not always drawn.

Key:
[1] = target: NA Transporter (hNAT) (Homo sapiens, UniProt P23975); experiment: Inhibition of [3H]-NA reuptake in HEK 293 cells stably expressing hNAT; conditions: 10 μmol/L final concentration (b487 prints 0.1 mmol/L); HEK 293 hNAT cells, [3H]-NA
[2] = target: DA Transporter (hDAT) (Homo sapiens, UniProt Q01959); experiment: Inhibition of [3H]-DA reuptake in HEK 293 cells stably expressing hDAT; conditions: for DA Reuptake Inhibition: 10 μmol/L final concentration (b487 prints 0.1 mmol/L), HEK 293 hDAT cells, [3H]-DA
DA Transporter (hDAT), sequence (Q01959 whole entry): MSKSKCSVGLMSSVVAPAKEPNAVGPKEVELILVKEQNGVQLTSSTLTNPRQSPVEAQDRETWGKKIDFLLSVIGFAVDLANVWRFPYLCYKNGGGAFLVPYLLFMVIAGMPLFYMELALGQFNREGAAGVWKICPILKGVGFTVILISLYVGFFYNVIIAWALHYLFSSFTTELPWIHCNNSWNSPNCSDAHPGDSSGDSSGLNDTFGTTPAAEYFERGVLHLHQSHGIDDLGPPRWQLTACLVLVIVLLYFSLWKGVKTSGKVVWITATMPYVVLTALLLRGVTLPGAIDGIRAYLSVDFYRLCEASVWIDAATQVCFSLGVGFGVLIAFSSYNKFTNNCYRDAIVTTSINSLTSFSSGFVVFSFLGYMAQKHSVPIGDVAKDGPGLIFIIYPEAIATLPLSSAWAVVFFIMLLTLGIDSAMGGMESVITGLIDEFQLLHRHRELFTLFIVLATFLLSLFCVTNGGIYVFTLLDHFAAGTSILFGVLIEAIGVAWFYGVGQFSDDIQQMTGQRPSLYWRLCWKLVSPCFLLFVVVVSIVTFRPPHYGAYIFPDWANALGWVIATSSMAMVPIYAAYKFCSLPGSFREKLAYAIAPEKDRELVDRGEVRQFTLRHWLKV

[3] = target: 5-HT Transporter (hSERT) (Homo sapiens, UniProt P31645); experiment: Inhibition of [3H]-5-HT reuptake in HEK 293 cells stably expressing hSERT; conditions: for 5-HT Reuptake Inhibition: 10 μmol/L final concentration (b487 prints 0.1 mmol/L), HEK 293 hSERT cells, [3H]-5-HT;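 as to all read-outs here: compound preincubated 10 min at 30 °C, then 10 min uptake, filter-bound radioactivity counted by scintillation, inhibition relative to total (blank) minus non-specific (positive control) uptake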
5-HT Transporter (hSERT), sequence (P31645 whole entry): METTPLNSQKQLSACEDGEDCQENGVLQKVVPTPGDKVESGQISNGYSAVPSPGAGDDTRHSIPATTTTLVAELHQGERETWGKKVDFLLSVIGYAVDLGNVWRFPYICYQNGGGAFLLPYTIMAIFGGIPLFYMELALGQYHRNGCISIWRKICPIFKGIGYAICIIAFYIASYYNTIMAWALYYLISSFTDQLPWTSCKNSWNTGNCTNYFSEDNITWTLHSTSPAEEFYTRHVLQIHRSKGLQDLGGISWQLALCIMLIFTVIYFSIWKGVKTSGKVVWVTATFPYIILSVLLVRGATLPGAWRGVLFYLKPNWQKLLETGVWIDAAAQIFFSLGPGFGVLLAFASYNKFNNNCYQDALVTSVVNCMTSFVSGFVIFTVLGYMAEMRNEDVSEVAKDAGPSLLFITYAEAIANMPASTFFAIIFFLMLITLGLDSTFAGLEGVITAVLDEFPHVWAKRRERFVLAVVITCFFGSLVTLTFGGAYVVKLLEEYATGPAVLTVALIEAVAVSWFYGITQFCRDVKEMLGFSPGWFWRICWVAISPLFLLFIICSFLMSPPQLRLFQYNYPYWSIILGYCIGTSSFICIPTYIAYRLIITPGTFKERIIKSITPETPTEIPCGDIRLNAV

[4] = test system: male ICR mice; experiment: Mice tail suspension test; type: in vivo; conditions: for IT (sec), immobility time: 20.0 mg/kg single intragastric administration, 1 h before test, 4 min observation, n=12; for Improvement (%): 20.0 mg/kg single oral administration, versus blank control IT; for effect on immobility time in the tail suspension test (in words): 20 mg/kg, efficacy similar to Venlafaxine
Experimental: Through intragastric administration, 10 mL·kg^−1 of each sample (physiological saline for the blank control group) is administrated. After 1 h of the treatment, the mouse is held with a medical tape at a position around 2 cm from the tip of its tail and hung upside-down in the suspension cage with its head 5 cm away from the bottom of the cage. The observation starts right after the mouse is suspended for 2 min and continues for 4 min. The time during which the mouse is immobile (no struggling or only tiny movements of its body/limbs) in this 4 min is accumulated (IT, immobility time). The percentage of the improvement is calculated according to the equation: Improvement %=[IT (blank control group)−IT (compound treatment group)]/IT (blank control group)×100%

[5] = test system: male Kunming mice; experiment: Mice forced swimming test; type: in vivo; conditions: for effect in the forced swimming test (in words): 20 mg/kg; for IT (sec), immobility time: 20.0 mg/kg single intragastric administration, 1 h before test, last 4 min of 6 min, n=12
Experimental: Through intragastric administration, 10 mL·kg^−1 of each sample (physiological saline for the blank control group) is administrated. The mice are pre-screened for swimming one day before the actual test. The mouse is placed into water (25° C., 10 cm deep) in a glass tank (height 20 cm, diameter 14 cm) and forced to swim for 6 min. Those who stop swimming at around 70-160 s are chosen for the actual test which starts 24 h later. After 1 h of the administration, the forced swimming test is performed by placing the animal into the above-mentioned environment to swim for 6 min. The accumulative immobility time for the last 4 min is recorded. Data is statistically analyzed with t-test.

NA Transporter (hNAT), sequence (P23975 whole entry): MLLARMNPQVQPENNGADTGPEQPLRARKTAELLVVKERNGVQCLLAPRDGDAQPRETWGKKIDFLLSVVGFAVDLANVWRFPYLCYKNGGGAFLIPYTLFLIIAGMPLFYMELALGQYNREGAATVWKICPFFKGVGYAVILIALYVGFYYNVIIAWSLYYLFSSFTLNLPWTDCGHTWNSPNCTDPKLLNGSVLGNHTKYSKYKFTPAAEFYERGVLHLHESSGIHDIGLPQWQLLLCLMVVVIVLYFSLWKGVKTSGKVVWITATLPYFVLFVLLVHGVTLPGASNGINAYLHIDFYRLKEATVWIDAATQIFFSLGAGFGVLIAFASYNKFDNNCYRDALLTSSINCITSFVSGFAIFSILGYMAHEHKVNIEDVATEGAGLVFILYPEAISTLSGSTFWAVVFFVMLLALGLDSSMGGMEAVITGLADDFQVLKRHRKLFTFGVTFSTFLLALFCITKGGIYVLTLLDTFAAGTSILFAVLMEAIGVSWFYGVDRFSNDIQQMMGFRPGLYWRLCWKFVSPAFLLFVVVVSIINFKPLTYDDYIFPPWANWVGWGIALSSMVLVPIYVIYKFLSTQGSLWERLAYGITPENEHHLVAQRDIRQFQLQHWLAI

Structure (SMILES)	melting point [°C]	NA Reuptake Inhibition [1] [%]	DA Reuptake Inhibition [2] [%]	5-HT Reuptake Inhibition [3] [%]	also measured
CCCN(C)C1(c2cc3ccccc3s2)CCCNC1 (centres unmarked) (as salt: hydrochloride) [VI-24, N-methyl-3-(benzothiophen-2-yl)-3-piperidyl-propylamine]	185.3 to 187				
COc1ccc2cc(C(CCN(C)C)N3CCOCC3)ccc2c1Cl (centres unmarked) [VI-34, N,N-dimethyl-3-(5-chloro-6-methoxynaphthalen-2-yl)-3-morpholinyl-propylamine]		49.5	2.48	47.3	
CN(CCCC1(c2ccc3c(c2)OCO3)CCCNC1)Cc1ccccc1 (centres unmarked) (as salt: hydrochloride) [VI-53, N-methyl-N-benzyl-3-(1,2-methylenedioxybenzen-4-yl)-3-piperidyl-propylamine]	285.6 to 288.9				
CN(C)CCC(c1ccc(F)cc1F)N1CCOCC1 (centres unmarked) [VI-48, N,N-dimethyl-3-(2,4-difluorophenyl)-3-morpholinyl-propylamine]		58.0	45.6	65.0	
CN(C)CCC(c1ccc(Cl)c(Cl)c1)N1CCOCC1 (centres unmarked) [VI-4, N,N-dimethyl-3-(3,4-dichlorophenyl)-3-morpholinyl-propylamine]		93.6	89.9	101.9	IT (sec), immobility time [4]: 38.65 ± 16.32 s; Improvement (%) [4]: 61.04%; effect on immobility time in the tail suspension test (in words) [4]: significant reduction in the immobility time; effect in the forced swimming test (in words) [5]: significant reduction in the immobility time; IT (sec), immobility time [5]: 52.8 ± 32.0 s; inhibition effect towards the reuptake of 5-HT (in words) [3]: relatively strong inhibition effect
CCCN(C)C1(c2ccc(OC)c(OC)c2)CCCNC1 (centres unmarked) (as salt: hydrochloride)	195.2 to 197.8				
CN(C)CCC(c1cc2ccccc2s1)N1CCCC1 (centres unmarked) (as salt: hydrochloride) [VI-19, N,N-dimethyl-3-(benzothiophen-2-yl)-3-(pyrrolidin-1-yl)-propylamine]	255 to 257.2				
CN(C)CCCC1(c2ccc(Cl)c(Cl)c2)CCCNC1 (centres unmarked) (as salt: hydrochloride) [VI-7, N,N-dimethyl-3-(3,4-dichlorophenyl)-3-piperidyl-propylamine]	169.1 to 171.8				
CNCCC(c1cc2ccccc2s1)N1CCCC1 (centres unmarked) (as salt: hydrochloride) [VI-21, N-methyl-3-(benzothiophen-2-yl)-3-(pyrrolidin-1-yl)-propylamine]	175 to 176.8				
CN(C)CCC(c1ccc(Cl)c(Cl)c1)N1CCNCC1 (centres unmarked) (as salt: hydrochloride) [VI-3, N,N-dimethyl-3-(3,4-dichlorophenyl)-3-(piperazin-1-yl)-propylamine]	257.3 to 258.9				
CN(C)CCCC(c1ccc(Cl)c(Cl)c1)N1CCNCC1 (centres unmarked) (as salt: hydrochloride) [VI-45, N,N-dimethyl-4-(3,4-dichlorophenyl)-4-(piperazin-1-yl)-butylamine]	245.6 to 248.2				
CNCCC(c1csc2ccccc12)N1CCCC1 (centres unmarked) (as salt: hydrochloride) [VI-15, N-methyl-3-(benzothiophen-3-yl)-3-(pyrrolidin-1-yl)-propylamine]	189.3 to 192				
CN(CCC(c1csc2ccccc12)N1CCCC1)Cc1ccccc1 (centres unmarked) (as salt: hydrochloride) [VI-14, N-methyl-N-benzyl-3-(benzothiophen-3-yl)-3-(pyrrolidin-1-yl)-propylamine]	297 to 299.5				
CN(CCCC1(c2csc3ccccc23)CCCNC1)Cc1ccccc1 (centres unmarked) (as salt: hydrochloride) [VI-17, N-methyl-N-benzyl-3-(benzothiophen-3-yl)-3-piperidyl-propylamine]	312 to 313.5				
CN(C)CCC(c1c[nH]c2ccccc12)N1CCOCC1 (centres unmarked) [VI-31, N,N-dimethyl-3-(indol-3-yl)-3-morpholinyl-propylamine]		88.1	75.6	87.9	IT (sec), immobility time [4]: 78.36 ± 23.00 s; Improvement (%) [4]: 20.84%; effect in the forced swimming test (in words) [5]: significant difference from that of the blank control; IT (sec), immobility time [5]: 99.7 ± 43.7 s; inhibition effect towards the reuptake of 5-HT (in words) [3]: relatively strong inhibition effect
COc1ccc(C(CCN(C)C)N2CCOCC2)cc1 (centres unmarked) [VI-38, N,N-dimethyl-3-(4-methoxyphenyl)-3-morpholinyl-propylamine]		29.3	23.0	25.9	

Structure (SMILES)	melting point [°C]	NA Reuptake Inhibition [1] [%]	DA Reuptake Inhibition [2] [%]	5-HT Reuptake Inhibition [3] [%]	also measured
COc1ccc(C(CCN(C)C)N2CCCC2)cc1 (centres unmarked) (as salt: hydrochloride) [VI-37, N,N-dimethyl-3-(4-methoxyphenyl)-3-(pyrrolidin-1-yl)-propylamine]	175.2 to 178.4				
Clc1ccc(C(CCN2CCOCC2)N2CCCC2)cc1Cl (centres unmarked) [VI-6]		101.4	106.4	106.3	IT (sec), immobility time [4]: 25.68 ± 14.25 s; Improvement (%) [4]: 74.11%; effect on immobility time in the tail suspension test (in words) [4]: significant reduction in the immobility time; effect in the forced swimming test (in words) [5]: significant difference from that of the blank control; IT (sec), immobility time [5]: 79.3 ± 53.1 s
CN(C)CCCC(c1ccc(Cl)c(Cl)c1)N1CCOCC1 (centres unmarked) [VI-44, N,N-dimethyl-4-(3,4-dichlorophenyl)-4-morpholinyl-butylamine]		54.6	67.0	45.8	
Clc1ccc([C@]23CNC[C@H]2C3)cc1Cl [DOV-21947, reference compound]					inhibition at 10 µM ([2]; HEK293, read-out: DA Reuptake Inhibition): 100%; inhibition at 10 µM ([3]; HEK293, read-out: 5-HT Reuptake Inhibition): 100%
CCCN(C)C1(c2ccc3c(c2)OCO3)CCCNC1 (centres unmarked) (as salt: hydrochloride)	189.3 to 192.4				
COc1ccc(C2(CCCN(C)Cc3ccccc3)CCCNC2)cc1OC (centres unmarked) (as salt: hydrochloride) [VI-59, N-methyl-N-benzyl-3-(3,4-dimethoxyphenyl)-3-piperidyl-propylamine]	256.6 to 258.9				
CN(C)CCC(c1csc2ccccc12)N1CCCC1 (centres unmarked) (as salt: hydrochloride) [VI-13, N,N-dimethyl-3-(benzothiophen-3-yl)-3-(pyrrolidin-1-yl)-propylamine]	259.7 to 262.2				
COc1ccc(C(CCN(C)Cc2ccccc2)N2CCOCC2)cc1OC (centres unmarked) [VI-56, N-methyl-N-benzyl-3-(3,4-dimethoxyphenyl)-3-morpholinyl-propylamine]		68.7	59.2	78.0	
CN(C)CCC(c1cccs1)N1CCOCC1 (centres unmarked) [VI-61, N,N-dimethyl-3-(thien-2-yl)-3-morpholinyl-propylamine]		75.0	65.6	78.9	
CCCN(C)C1(c2csc3ccccc23)CCCNC1 (centres unmarked) (as salt: hydrochloride)	193.2 to 195				
CN(CCCC1(c2cc3ccccc3s2)CCCNC1)Cc1ccccc1 (centres unmarked) (as salt: hydrochloride) [VI-23, N-methyl-N-benzyl-3-(benzothiophen-2-yl)-3-piperidyl-propylamine]	298.5 to 300				
CN(C)CCCC(c1csc2ccccc12)N1CCNCC1 (centres unmarked) (as salt: hydrochloride) [VI-47, N,N-dimethyl-4-(benzothiophen-3-yl)-4-(piperazin-1-yl)-butylamine]	249.6 to 252.2				
CN(CCC(c1cc2ccccc2s1)N1CCCC1)Cc1ccccc1 (centres unmarked) (as salt: hydrochloride) [VI-20, N-methyl-N-benzyl-3-(benzothiophen-2-yl)-3-(pyrrolidin-1-yl)-propylamine]	287.5 to 289.2				
COc1ccc2cc(C(CCN(C)C)N3CCCC3)ccc2c1Cl (centres unmarked) (as salt: hydrochloride) [VI-36, N,N-dimethyl-3-(5-chloro-6-methoxynaphthalen-2-yl)-3-(pyrrolidin-1-yl)-propylamine]	215.2 to 216.9				
CN(C)CCC(c1cc2ccccc2s1)N1CCOCC1 (centres unmarked) [VI-25, N,N-dimethyl-3-(benzothiophen-2-yl)-3-morpholinyl-propylamine]		96.8	39.2	91.5	
